Reference: patent US9345742B2, “Aminostatin derivatives for the treatment of arthrosis” (MERCK PATENT GMBH, priority 2011, dated 2016)

Tests used:
[1] = Stability in bovine synovial fluid; type: in vitro ADME; details: 1 μM, 48 h at 37° C.
Method: In order to check the stability of individual compounds, a pool of four different bovine synovial fluids is mixed. To this end, about 1 ml per SF is used. The mixture is prepared directly in a 5 ml glass vessel. The SFs are mixed thoroughly, but carefully. No air bubbles or foam should form. To this end, a vortex unit is used at the lowest speed. The compounds to be tested are tested in an initial concentration (unless required otherwise) of 1 μM. After addition of the substance, the batch is again mixed thoroughly and carefully. For visual monitoring, all SF batches are photographed, and the pictures are filed in the eLabBio file for the corresponding experiment. […] The batches are incubated in the incubator for 48 h at 37° C. and 7.5% CO2.
The sampling is carried out after the pre-agreed times (unless required otherwise, see below). 200 μl of the SF are removed from the mixture per time and transferred directly into a 0.5 ml “low-binding” Eppendorf vessel. “Low-binding” Eppendorf vessels are used in order to minimise interaction of the substances with the plastic of the vessels. 200 μl of acetonitrile have already been introduced into the Eppendorf vessel, so that a 1+1 mixture of the SF forms thereafter. This simplifies the subsequent analysis, but precipitation of protein may occur immediately after addition of the SF. This should be noted on the protocol. The 0 h sample is taken immediately after addition of the substance. This corresponds to the 100% value in the stability calculation. Ideally, the concentration employed should be retrieved here. The samples can be frozen at −20° C. • 0 h • 6 h • 24 h • 48 h
The negative control used is SF without substance. The positive control used is SF with 1 μM of substance. This corresponds to the 0 h value and thus 100% stability.
The concentrations measured (ng/ml) are plotted against the time in a graph (GraphPad Prism®). The percentage stability of the substance is determined here. The 100% value used is the initial value in the SF at time 0 h. The data are stored in eLabBio under the respective experiment number and reported in the MSR database (as percent stability after the corresponding incubation times).

recombinant human renin = recombinant human renin (Homo sapiens (Human), UniProt P00797); test: In-vitro fluorescence assay for identification of renin-inhibitory activity; type: biochemical; details: recombinant human renin 10 nM, pH 7.2; read-out: Renin selectivity IC50
Chain of recombinant human renin (P00797 67-406): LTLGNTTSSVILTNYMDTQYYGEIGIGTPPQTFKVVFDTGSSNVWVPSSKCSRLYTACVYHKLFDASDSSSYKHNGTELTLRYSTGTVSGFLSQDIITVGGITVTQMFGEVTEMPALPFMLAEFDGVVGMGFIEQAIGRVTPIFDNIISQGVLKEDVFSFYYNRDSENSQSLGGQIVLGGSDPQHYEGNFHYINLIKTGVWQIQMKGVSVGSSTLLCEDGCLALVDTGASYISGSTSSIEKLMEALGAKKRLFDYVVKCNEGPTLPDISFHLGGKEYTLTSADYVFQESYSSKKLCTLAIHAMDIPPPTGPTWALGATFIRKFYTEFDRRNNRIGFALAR
Procedure, shortened: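 Recombinant human renin (10 nM) pre-incubated 15 min at RT with serially diluted compound in 50 mM Mops pH 7.2, 1.5% DMSO, 0.1% Igepal, 0.5% BSA; Edans/Dabcyl FRET peptide (5 µM final) added, 60 min at 37 °C; cleavage read as fluorescence increase (ex 340/em 495 nm) against no-compound wells.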

[2] = biological target: cathepsin D isolated from the human liver (Homo sapiens (Human), UniProt P07339); test: In-vitro fluorescence assay for identification of cathepsin D inhibitors; type: biochemical; details: cathepsin D 1.4 nM, pH 5.5; read-out: CatD assay IC50-
Chain of cathepsin D isolated from the human liver (P07339 65-161): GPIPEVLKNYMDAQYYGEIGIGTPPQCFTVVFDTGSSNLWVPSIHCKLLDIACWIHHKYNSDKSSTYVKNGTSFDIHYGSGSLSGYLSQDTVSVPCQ
Chain of cathepsin D isolated from the human liver (P07339 169-412): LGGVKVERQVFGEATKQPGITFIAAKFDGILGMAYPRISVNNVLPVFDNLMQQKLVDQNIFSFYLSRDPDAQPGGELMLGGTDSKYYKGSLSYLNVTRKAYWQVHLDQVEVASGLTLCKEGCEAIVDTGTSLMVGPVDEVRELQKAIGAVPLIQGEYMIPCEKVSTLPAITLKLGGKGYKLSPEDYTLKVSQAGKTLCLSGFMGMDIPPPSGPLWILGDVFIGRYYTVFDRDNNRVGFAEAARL
Procedure, shortened: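 A FRET-quenched MCA/Dnp peptide (5 μM final) was cleaved by 1.4 nM liver-derived human cathepsin D at pH 5.5 in sodium acetate buffer containing CHAPS and 1.25% DMSO. Enzyme and compound dilutions were first incubated 10 min.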

Row | Stability in synovial fluid [1] | IC50 (recombinant human renin) | IC50 [2] | SMILES
1 | stable | > 30000 nM | – | CC[C@H](C)[C@H](NC(=O)C[C@H](N)[C@H](Cc1ccccc1)NC(=O)[C@@H](NC(=O)[C@H](CC(C)C)NC(=O)CC(C)C)C(C)C)C(=O)NCCc1ccccc1 [Compound 24, N-((1S,2S)-2-Methyl-1-phenethyl-carbamoylbutyl)-(S)-3-amino-4-{(S)-(S)-3-methyl-2-[(S)-4-methyl-2-(3-methylbutyryl-amino)pentanoylamino]butyrylamino}-5-phenylpentanamide]
2 | stable | – | 46 nM | CC[C@H](C)[C@H](NC(=O)C[C@H](N)[C@H](Cc1ccccc1)NC(=O)[C@@H](NC(=O)[C@H](CC(C)C)NC(=O)CC(C)C)C(C)C)C(=O)Nc1ccn(C)n1 [Compound 27, N-[(1S,2S)-2-Methyl-1-(1-methyl-1H-pyrazol-3-ylcarbamoyl)butyl]-(S)-3-amino-4-{(S)-(S)-3-methyl-2-[(S)-4-methyl-2-(3-methylbutyrylamino)pentanoylamino]-butyrylamino}-5-phenylpentanamide]
